We go through eleven compounds from PMC9733678, “Combining drug salt formation with amorphous solid dispersions – a double edged sword” (Journal of Controlled Release, 2022).

Bounds are passed on as bounds.

Broadly, the log P is a log measure of how a compound divides between an organic and an aqueous phase.

Data set [1] in a line: Physical stability, open dish 40 °C/75% RH, monitored by PXRD. The following applies: neat amorphous salt. In kind it is physicochemical. Here is the method: PXRD patterns of the lumefantrine salts and salt ASDs were collected using an X-ray diffractometer (Rigaku SmartLab, Rigaku Americas, The Woodlands, TX) operating at 40 kV and […] in Bragg–Brentano mode with a Cu-kα radiation source and D/tex ultra detector. Each sample was spread thinly on a glass sample holder. Data was collected from 4 to 40° 2θ using a step size of 0.02° and a scan rate of 4°/min.
To assess the physical stability of the salts and salt ASDs, the samples were stored in open dish accelerated stability conditions of 40 °C/ 75% RH. At pre-determined time intervals, the samples were removed and their PXRD patterns collected.

Data set [2] is described as follows: Water sorption analysis of amorphous lumefantrine salts (DVS). The following applies: neat amorphous salt; for weight gain (water sorption): 95% RH. The class given is physicochemical. Here is the method:
Water sorption profiles of the amorphous lumefantrine salts were measured using a DVS Adventure water vapor sorption analyzer (Surface Measurement Systems, Wembley, UK). Powdered salt (5–10 mg) was dried at 0% RH in the instrument for 120 min. After drying, the RH within the chamber was increased from 5% to 95% at a 5% step interval. The equilibrium criterion was a percent weight change over time (% dm/dt) of <0.002%/min for 10 min. Nitrogen was used as the purging gas.

On the set-up of data set [3]: method as in PMID 32134677. The following applies: PVPVA ASD; cited from earlier work.
On the set-up of data set [4]: method as in PMID 10468018. The following applies: amorphous salt; cited from earlier work.
The nature of data set [5]: Thermal analysis (DSC), onset glass transition temperature. In kind it is physicochemical. The following applies: for Tg (glass transition temperature) of neat amorphous material: DSC. On the procedure: A Q2000 differential scanning calorimeter (DSC; Q2000, TA Instruments, New Castle, DE) connected to an RCS 90 refrigerated cooling system (TA Instruments, New Castle, DE) was used to analyze the lumefantrine salts and salt ASDs. The thermal properties of lumefantrine free base, lumefantrine free base ASDs, and neat PVPVA were also analyzed. The purging gas used was dry nitrogen (50 mL/min flow rate). Temperature calibration of the DSC was performed using indium and tin, while indium was used for enthalpy calibration. Each sample (5–10 mg) was carefully weighed and sealed in a Tzero aluminum sample pan (TA Instruments, New Castle, DE). The procedure to obtain the sample Tg is as follows: equilibration at −10 °C, followed by heating with a modulation of ±0.636 °C every 40 s at 3 °C/min to the temperature of interest. The samples were then cooled to −10 °C at 10 °C/min and reheated at 5 °C/min. The first heating cycle was used to remove thermal history associated with the samples, while the second cycle was used to obtain the sample Tg.

Details of data set [6]: method as in PMID 23763957. The following applies: cited from earlier work.
Details of data set [7]: method as in PMID 24189249. The following applies: cited from earlier work.

Turning to “Lumefantrine PEG 250 diacid [PEG 250 diacid (2:1) salt]”, the “storage time at which crystalline peaks were observed” value (shortened to “storage time”) in data set [1] is recorded as not above 4 weeks.

As to `CCCCN(CCCC)CC(O)c1cc(Cl)cc2c1-c1ccc(Cl)cc1C2=Cc1ccc(Cl)cc1.O=S(=O)(O)c1ccccc1` (centres unmarked) [besylate salt, Lumefantrine besylate], the “weight gain (water sorption)” value in data set [2] was less than 2%. For the same compound, the “storage time” value in data set [1] is not above 4 weeks.

In the case of `COc1ccc2c(c1)c(CC(=O)O)c(C)n2C(=O)c1ccc(Cl)cc1` [indomethacin], the “limit of congruency (LoC)” value in data set [3] is 10%.

For `CC1(C)[C@@H]2CC[C@@]1(CS(=O)(=O)O)C(=O)C2.CCCCN(CCCC)CC(O)c1cc(Cl)cc2c1-c1ccc(Cl)cc1/C2=C/c1ccc(Cl)cc1` (centres unmarked) [camsylate salt, Lumefantrine camsylate], the “weight gain (water sorption)” value in data set [2] is on record as less than 2%. Further, in data set [1], the “storage time” value was 32 weeks.

Take “Lumefantrine PEG 250 diacid [PEG 250 diacid (1:1) salt]”: in data set [2], the “appearance after exposure to 95% RH” value is reported as “liquified” and the “weight gain (water sorption)” value is on record as 6.6%. Also, the “increase in weight (water sorption)” value in data set [2] (90% RH) was 5.1%.

In the case of `COc1ccc2c(c1)c(CC(=O)[O-])c(C)n2C(=O)c1ccc(Cl)cc1.[Na+]` [Na indomethacin], the “Tg higher than indomethacin free acid” value in data set [4] was approximately 75 °C.

Take `CCCCN(CCCC)CC(O)c1cc(Cl)cc2c1-c1ccc(Cl)cc1/C2=C/c1ccc(Cl)cc1` (centres unmarked) [lumefantrine, reference compound]: the “Tg (glass transition temperature) of neat amorphous material” value amounted to 19.7 °C in data set [5] and 20 °C in data set [5] (listed as free base). Moreover, the “pKa of tertiary amine” value in data set [6] was 8.73. For the same compound, the “log P” value in data set [7] is recorded as 8.34.

Regarding `CCCCN(CCCC)CC(O)c1cc(Cl)cc2c1-c1ccc(Cl)cc1/C2=C/c1ccc(Cl)cc1.CCCCN(CCCC)CC(O)c1cc(Cl)cc2c1-c1ccc(Cl)cc1/C2=C/c1ccc(Cl)cc1.O=S(=O)(O)O` (centres unmarked) [sulfate salt, Lumefantrine sulfate], the “Tg (glass transition temperature) of neat amorphous material” value in data set [5] was found to be 101 °C. Further, in data set [2], the “weight gain (water sorption)” value is 3.3%. In addition, in data set [1], the “time re-crystallization was resisted” value was “at least 16 weeks”.

As for `CCCCN(CCCC)CC(O)c1cc(Cl)cc2c1-c1ccc(Cl)cc1/C2=C/c1ccc(Cl)cc1.O=C(O)c1ccccc1` (centres unmarked) [benzoate salt, Lumefantrine benzoate], in data set [5] (neat amorphous salt), the “elevation in Tg relative to the free base” value was approximately 10 °C. Further, in data set [2], the “weight gain (water sorption)” value is less than 2%. The “storage time” value in data set [1] is on record as not above 4 weeks.

Turning to `CCCCN(CCCC)CC(O)c1cc(Cl)cc2c1-c1ccc(Cl)cc1C2=Cc1ccc(Cl)cc1.Cl` (centres unmarked) [HCl salt, Lumefantrine HCl], the “weight gain (water sorption)” value in data set [2] was less than 2%. Besides, the “time re-crystallization was resisted” value in data set [1] is on record as “at least 16 weeks”.

With `CCCCN(CCCC)CC(O)c1cc(Cl)cc2c1-c1ccc(Cl)cc1C2=Cc1ccc(Cl)cc1.Cc1ccc(S(=O)(=O)O)cc1` (centres unmarked) [tosylate salt, Lumefantrine tosylate], the “weight gain (water sorption)” value in data set [2] was less than 2%.
